The values below are quoted from earlier work in patent publication US10543174B2, “Modified release tablet composition comprising mirabegron” (SYNTHON B.V., priority 2016, dated 2020).

SMILES strings stand for the structures.

For data set [1] the following is noted: presence of food in the GI tract.

Regarding `Nc1nc(CC(=O)Nc2ccc(CCNC[C@H](O)c3ccccc3)cc2)cs1` [Mirabegron, (R)-2-(2-aminothiazol-4-yl)-4′-[2-[(2-hydroxy-2-phenylethyl)amino]ethyl]acetic acid anilide], the “bioavailability, food effect” value in data set [1] was “affected by the presence of food”. Also, the solubility entry (BCS) is “high solubility”. Also, the solubility in water result (between neutral to acidic pH, EMA assessment report of Betmiga) is “soluble”.
